Data as given in patent US9717714B2, “Spirocyclic CETP inhibitors” (Merck Sharp & Dohme Corp., priority 2012, dated 2017).
Read-outs that look alike come from different tables or passages of the source.

Biological target: endogenous CETP from serum (Homo sapiens (Human), UniProt P11597)
Assay: RTA assay in 95% human serum (CETP-catalyzed CE and TG transfer, endogenous CETP)
Type: biochemical
Description: In Vitro Radioactive Assays of CETP-Catalyzed CE and TG Transfer (RTA Assay)
Reagents and sources are: [3H] cholesteryl oleate (GE #TRK.886), [3H] Triolein (Perkin-Elmer NET-431), Butylated hydroxyl toluene (Aldrich, #D4740-4), DOPC (Sigma, #P6354), Sodium Bromide (Fisher scientific #S255-500), PEG 8000 (Fisher, #BP233-1), and human HDL (Intracel Corp #RP-036).
Both assays measure the transfer of [3H] cholesteryl oleate or [3H] triolein from exogenous LDL to HDL.
Radiolabeled donor particles are generated by first combining 100 μl of 200 μM butylated hydroxyl toluene in CHCl3, 216 μL of 21.57 mM DOPC in EtOH, and either 500 μCi [3H]-triolein (Perkin Elmer #NET-431) or 500 μCi [3H]-cholesteryl oleate (GE #TRK886) in a glass tube. Reagents are mixed, dried under nitrogen, and then resuspended in 2 mL of 50 mM Tris, 27 μM EDTA at pH 7.4. After a brief vortex, the solution is sonicated until clear and mixed with 20 mL of fresh human serum. The mixture is incubated overnight at 37° C. The [3H] labeled LDL substrate is separated at 1.063 g/ml density by sequential ultracentrifugal flotation in NaBr according to the method of Havel, Eder, et al., 1955, and Chapman, Goldstein, et al., 1981. Once isolated the particles are dialyzed 3× in CETP buffer (50 mM Tris, pH 7.4, 100 mM NaCl, 1 mM EDTA). Human HDL is purchased from Intracel and used as the acceptor particles.
Transfer assays are performed in a 96-well v-bottom polypropylene plate. For the RTA using recombinant CETP (2% RTA), an assay cocktail is prepared with the final concentrations 128 μg/mL HDL, 20 nM rCETP, 2% human serum, and 1×CETP buffer. 1 μL of each test compound diluted in DMSO is added to 47 μL of assay cocktail per well and incubated at 37° C. for 1 hour. To initiate the transfer reaction, 2 μL radiolabeled LDL is added. After an additional 60 min of incubation at 37° C., the transfer action is terminated by precipitation of LDL with an equal volume of 20% W/V PEG 8000. The plates are centrifuged at 2000 rpm for 30 minutes at 4° C. A 40 μL aliquot of the HDL-containing supernatant is transferred to a Packard Optiplate™ with 200 μL of MicroScint™ 20. After mixing, plates are counted by liquid scintillation. Counts present in the supernatant for blanks (wells containing only HDL acceptor, CETP buffer and DMSO) are subtracted from those containing test compounds and used to correct for non-specific transfer.
For the transfer assay using endogenous CETP from serum (95% RTA), the same procedure is used except that human serum is added such that a final concentration of serum of 95% of the total assay volume is achieved, yielding a concentration of approximately 15 nM endogenous CETP in the assay. This is then combined with HDL and CETP buffer and the reaction proceeds as above and is terminated as described.
Comparison of the counts of samples with inhibitors to an uninhibited (DMSO only) positive control yield a percent inhibition. A plot of percent inhibition vs. log of inhibitor concentration, fit to a Sigmoidal 4 parameter equation is used to calculate IC50.
Starting materials are commercially available or are made using known procedures or as shown below. The examples may be synthesized according to the general schemes provided below and through the synthetic intermediates that are described. […] When compounds of Formula I or Formula II are mentioned herein, such compounds include compounds defined generically by Formula I or II and also the specific examples disclosed herein.

[1] = 95% human serum, read-out: RTA (95% HS)
[2] = generally RTA assay in 95% human serum, read-out: IC50

Chain of endogenous CETP from serum (P11597 18-493 limits assumed): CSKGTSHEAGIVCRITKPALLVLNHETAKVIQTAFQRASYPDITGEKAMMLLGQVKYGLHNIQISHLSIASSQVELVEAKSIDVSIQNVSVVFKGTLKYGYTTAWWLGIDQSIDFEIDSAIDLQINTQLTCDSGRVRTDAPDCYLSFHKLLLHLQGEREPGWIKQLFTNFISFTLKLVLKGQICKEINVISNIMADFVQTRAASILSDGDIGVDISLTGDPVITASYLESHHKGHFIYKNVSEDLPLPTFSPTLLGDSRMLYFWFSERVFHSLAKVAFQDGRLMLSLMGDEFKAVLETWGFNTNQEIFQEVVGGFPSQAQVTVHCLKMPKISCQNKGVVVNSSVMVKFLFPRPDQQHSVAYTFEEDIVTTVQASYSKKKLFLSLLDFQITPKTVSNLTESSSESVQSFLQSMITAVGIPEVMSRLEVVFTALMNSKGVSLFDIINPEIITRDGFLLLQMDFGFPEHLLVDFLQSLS

SMILES | IC50 [1] | IC50 [2]
COc1ccc([C@H]2C[C@H](C(=O)O)C2)cc1-c1ccc(C(F)(F)F)nc1CN1C(=O)O[C@H](c2cc(C(F)(F)F)cc(C(F)(F)F)c2)C12CC2 [Example 1, trans-3-{3-[2-({(7R)-7-[3,5-bis(trifluoromethyl)phenyl]-5-oxo-6-oxa-4-azaspiro[2.4]hept-4-yl}methyl)-6-(trifluoromethyl)pyridin-3-yl]-4-methoxyphenyl}cyclobutanecarboxylic acid] | 962 nM | 
COc1ccc(-c2ccc(C(=O)O)cc2C)cc1-c1ccc(C(F)(F)F)nc1CN1C(=O)O[C@H](c2cc(C(F)(F)F)cc(C(F)(F)F)c2)C12CC2 [Example 2, 3′-[2-({(7R)-7-[3,5-bis(trifluoromethyl)phenyl]-5-oxo-6-oxa-4-azaspiro[2.4]hept-4-yl}methyl)-6-(trifluoromethyl)pyridine-3-yl]-4′-methoxy-2-methylbiphenyl-4-carboxylic acid] |  | 212 nM
COc1cc(F)c(-c2ccc(C(=O)O)cc2C)cc1-c1ccc(C(F)(F)F)nc1CN1C(=O)O[C@H](c2cc(C(F)(F)F)cc(C(F)(F)F)c2)C12CC2 [Example 3, 5′-[2-({(7R)-7-[3,5-bis(trifluoromethyl)phenyl]-5-oxo-6-oxa-4-azaspiro[2.4]hept-4-yl}methyl)-6-(trifluoromethyl)pyridin-3-yl]-2′-fluoro-4′-methoxy-2-methylbiphenyl-4-carboxylic acid] |  | 119 nM
COc1ncc(-c2ccc(C(=O)O)cc2C)cc1-c1ccc(C(F)(F)F)nc1CN1C(=O)O[C@H](c2cc(C(F)(F)F)cc(C(F)(F)F)c2)C12CC2 [Example 4, 4-[2′-({(7R)-7-[3,5-bis(trifluoromethyl)phenyl]-5-oxo-6-oxa-4-azaspiro[2.4]hept-4-yl}methyl)-2-methoxy-6′-(trifluoromethyl)-3,3′-bipyridin-5-yl]-3-methylbenzoic acid] |  | 173 nM
COc1ccc(CCC(=O)O)cc1-c1ccc(C(F)(F)F)nc1CN1C(=O)O[C@H](c2cc(C(F)(F)F)cc(C(F)(F)F)c2)C12CC2 [Example 5, 3-{3-[2-({(7R)-7-[3,5-bis(trifluoromethyl)phenyl]-5-oxo-6-oxa-4-azaspiro[2.4]hept-4-yl}methyl)-6-(trifluoromethyl)pyridin-3-yl]-4-methoxyphenyl}propanoic acid] |  | 3360 nM
COc1ccc([C@H]2C[C@H](CO)C2)cc1-c1ccc(C(F)(F)F)nc1CN1C(=O)O[C@H](c2cc(C(F)(F)F)cc(C(F)(F)F)c2)C12CC2 [Example 6, (7R)-7-[3,5-bis(trifluoromethyl)phenyl]-4-{[3-{5-[trans-3-(hydroxymethyl)cyclobutyl]-2-methoxyphenyl}-6-(trifluoromethyl)pyridin-2-yl]methyl}-6-oxa-4-azaspiro[2.4]heptan-5-one] | 1850 nM | 
COc1ccc(-c2ccc(CO)cc2C)cc1-c1cnc(N2CC(F)C2)nc1CN1C(=O)O[C@H](c2cc(C(F)(F)F)cc(C(F)(F)F)c2)C12CCC2 [Example 7, (8R)-8-[3,5-bis(trifluoromethyl)phenyl]-5-({2-(3-fluoroazetidin-1-yl)-5-[4′-(hydroxymethyl)-4-methoxy-2′-methylbiphenyl-3-yl]pyrimidin-4-yl}methyl)-7-oxa-5-azaspiro[3.4]octan-6-one] |  | 68 nM
COc1ccc(-c2ccc(C(=O)O)cc2C)cc1-c1cnc(N(C)C)nc1CN1C(=O)O[C@H](c2cc(C(F)(F)F)cc(C(F)(F)F)c2)C12CC2 [Example 9, 3′-[4-({(7R)-7-[3,5-bis(trifluoromethyl)phenyl]-5-oxo-6-oxa-4-azaspiro[2.4]hept-4-yl}methyl)-2-(dimethylamino)pyrimidin-5-yl]-4′-methoxy-2-methylbiphenyl-4-carboxylic acid] | 55.5 nM | 
COc1cc(F)c(C(C)C)cc1-c1cnc(N(C)C)nc1CN1C(=O)OC(c2cc(C(F)(F)F)cc(C(F)(F)F)c2)C12CC2 (stereo not shown) [Example 10, 7-[3,5-bis(trifluoromethyl)phenyl]-4-({2-(dimethylamino)-5-[4-fluoro-2-methoxy-5-(1-methylethyl)phenyl]pyrimidin-4-yl}methyl)-6-oxa-4-azaspiro[2.4]heptan-5-one] |  | 345 nM
COc1cc(F)c(C(C)C)cc1-c1cnc(N(C)C)nc1CN1C(=O)OC(c2cc(C(F)(F)F)cc(C(F)(F)F)c2)C12CCC2 (stereo not shown) [Example 11, 8-[3,5-bis(trifluoromethyl)phenyl]-5-({2-(dimethylamino)-5[4-fluoro-2-methoxy-5-(1-methylethyl)phenyl]pyrimidin-4-yl}methyl)-7-oxa-5-azaspiro[3.4]octan-6-one] |  | 318 nM
COc1ccc(-c2ccc(C(=O)O)cc2C)cc1-c1cnc(N2CC(F)C2)nc1CN1C(=O)O[C@H](c2cc(C(F)(F)F)cc(C(F)(F)F)c2)C12CCC2 [Example 12, 3′-[4-({(8R)-8-[3,5-bis(trifluoromethyl)phenyl]-6-oxo-7-oxa-5-azaspiro[3.4]oct-5-yl}methyl)-2-(3-fluoroazetidin-1-yl)pyrimidin-5-yl]-4′-methoxy-2-methylbiphenyl-4-carboxylic acid] |  | 73 nM
COc1ccc(-c2ccc(C(=O)O)cc2C)cc1-c1cnc(N2CCOCC2)nc1CN1C(=O)O[C@H](c2cc(C(F)(F)F)cc(C(F)(F)F)c2)C12CCC2 [Example 13, 3′-[4-({(8R)-8-[3,5-bis(trifluoromethyl)phenyl]-6-oxo-7-oxa-5-azaspiro[3.4]oct-5-yl}methyl)-2-morpholin-4-ylpyrimidin-5-yl]-4′-methoxy-2-methylbiphenyl-4-carboxylic acid] |  | 242 nM
COc1ccc(-c2ccc(C(=O)O)cc2C)cc1-c1cnc(N(C)S(C)(=O)=O)nc1CN1C(=O)O[C@H](c2cc(C(F)(F)F)cc(C(F)(F)F)c2)C12CCC2 [Example 14, 3′-[4-({(8R)-8-[3,5-bis(trifluoromethyl)phenyl]-6-oxo-7-oxa-5-azaspiro[3.4]oct-5-yl}methyl)-2-[methyl (methylsulfonyl)amino]pyrimidin-5-yl}-4′-methoxy-2-methylbiphenyl-4-carboxylic acid] |  | 561 nM
COc1ccc(-c2ccc(C(=O)O)cc2C)cc1-c1cnc(N2CC(F)C2)nc1CN1C(=O)O[C@H](c2cc(C(F)(F)F)cc(C(F)(F)F)c2)C12CC2 [Example 15, 3′-[4-({(7R)-7-[3,5-bis(trifluoromethyl)phenyl]-5-oxo-6-oxa-4-azaspiro[2.4]hept-4-yl}methyl)-2-(3-fluoroazetidin-1-yl)pyrimidin-5-yl]-4′-methoxy-2-methylbiphenyl-4-carboxylic acid] |  | 104 nM
COc1ccc(-c2ccc(C(=O)O)cc2C)cc1-c1cnc(N2CCOCC2)nc1CN1C(=O)O[C@H](c2cc(C(F)(F)F)cc(C(F)(F)F)c2)C12CC2 [Example 16, 3′-[4-({(7R)-7-[3,5-bis(trifluoromethyl)phenyl]-5-oxo-6-oxa-4-azaspiro[2.4]hept-4-yl}methyl)-2-morpholin-4-ylpyrimidin-5-yl]-4′-methoxy-2-methylbiphenyl-4-carboxylic acid] |  | 272 nM
COC(=O)c1ccc(-c2ccc(OC)c(-c3cnc(SC)nc3CN3C(=O)O[C@H](c4cc(C(F)(F)F)cc(C(F)(F)F)c4)C34CCC4)c2)c(C)c1 [Example 17, methyl 3′-[4-({(8R)-8-[3,5-bis(trifluoromethyl)phenyl]-6-oxo-7-oxa-5-azaspiro[3.4]oct-5-yl}methyl)-2-(methylsulfanyl)pyrimidin-5-yl]-4′-methoxy-2-methylbiphenyl-4-carboxylate] | 913 nM | 
